“Also recorded” adds a separate entry of the source.
Columns and labels:
[1] = system: rat middle cerebral artery distal obstruction cerebral ischemia model; experiment: dMCAO cerebral ischemia: neurologic function score; type: in vivo
Protocol: Using rat middle cerebral artery distal obstruction cerebral ischemia model. (1) according to rat weight, 10% chloral hydrate (3 ml/kg) was peritoneally injected to anaesthetize. […]
3.3.1 the neurologic function score of the animal in conscious were scored for the rat behaviour according to the Neurological Defects 4 Score in 5 Grade Method by Longa E Z et al ^[4] : 0 point: no significant neurologic function impairment; 1 point: unable to stretch forelimbs on opposite sides; 2 point: rolling to the opposite side when walking; 3 point: duping to the opposite side when walking; 4 point: unable to spontaneously walk, and loss of consciousness.

[2] = system: pentylenetetrazole induced convulsion; experiment: pentylenetetrazole induced convulsion in mouse; type: in vivo
Protocol: Male ICR mouse, 18˜22 g; purchased from Animal Experiment Center of Wenzhou Medical University. Before experiment, animals were adapted to environment for at least 5 days. Kept at 25 °C, food and water were freely fed. Based on the weight, the healthy male ICR mice were randomly divided into control group (1% DMSO, ip), model group, CCPA group (0.1 mg·kg^−1, ip), HEA group (15 mg/kg, 40 mg/kg, 60 mg/kg), DPCPX group (2 mg·kg^−1, ip), ZM241385 group (1 mg·kg^−1, 5 mg·kg^−1, ip), DPCPX+HEA (2 mg·kg^−1+40 mg/kg, ip) group and ZM241385+HEA (1 mg·kg^−1+40 mg/kg, 5 mg·kg^−1+40 mg/kg ip) group.
The survival time and mortality after convulsion were respectively recorded for each group.

[3] = molecular target: T1, rat striatum adenosine A2A receptor (Rattus norvegicus, UniProt P30543); experiment: adenosine A2A receptor ligand binding test ([3H]MSX-2); conditions: rat striatum homogenate, 0.75 nM [3H]MSX-2, 25° C. 30 min; read-out: Ki value of competitive binding with the adenosine A2A receptor
T1 construct: from tissue; host or cells: Wistar rat striatum
Protocol: Using Wistar rat, head was cut and the brain was removed, and cerebral cortex and striatum were separated, respectively weighed, added into 10 fold volume of ice-cooled Tris-HCL buffer solution (50 mM, PH7.5) according to 1:10, the tissue is homogenized, after the suspension was centrifuged the supernatant was discarded, the above-described solution wash was repeated for 3 times, centrifuged again and the supernatant was discarded, the precipitate was again mixed in 50 mM Tris-HCL buffer solution, the protein concentration in rat cerebral cortex determined by Coomassie Brilliant Blue Method (Bradford method) was 0.8 mg/ml, the protein content in rat striatum brain tissue homogenate was 1.3 mg/ml.
To a detect tube the HEA with different concentration (10^−9, 10^−8, 10^−7, 10^−6, 10^−5 mol/L) were added, mixed well, then incubated at 25° C. in water bath on shaking table for 30 min, the reaction liquid was drawn by a cell collector, passed the GF/B glass filter membrane (Watman), reaction was terminated, washed 3 times with Tris-HCl buffer solution, each time 3 ml, the filter membrane was removed and dried, then put into a scintillation vial containing 4 ml of scintillation solution to determine radioactivity. A radioactivity count to the filter membrane was conducted by a scintillation counter.

[4] = molecular target: T2, rat cerebral cortex adenosine A1 receptor (Rattus norvegicus, UniProt P25099); experiment: adenosine A1 receptor ligand binding test ([3H]DPCPX)
T2 construct: DPCPX; from tissue; host or cells: Wistar rat cerebral cortex
T2 sequence (P25099 1-326): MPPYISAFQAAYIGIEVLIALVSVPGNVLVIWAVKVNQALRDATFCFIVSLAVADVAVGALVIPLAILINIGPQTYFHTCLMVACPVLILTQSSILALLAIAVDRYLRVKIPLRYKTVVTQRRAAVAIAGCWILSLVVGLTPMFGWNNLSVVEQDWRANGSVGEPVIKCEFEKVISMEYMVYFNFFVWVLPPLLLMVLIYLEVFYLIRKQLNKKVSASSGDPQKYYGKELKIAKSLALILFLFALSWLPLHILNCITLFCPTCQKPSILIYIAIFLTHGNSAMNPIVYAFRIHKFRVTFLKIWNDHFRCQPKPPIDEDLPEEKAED

[5] = system: mouse PD model induced by MPTP; experiment: MPTP induced mouse PD model: pole-climbing method; type: in vivo; conditions: MPTP 30 mg/kg mice; Cordyceps cicadae extract 1500 mg/kg; HEA 10 mg/kg ip; 14 days
Protocol: (§1) 24±1 g male C57BL/6 mice were randomly divided into six groups: control group, model group, Cordyceps cicadae extract group (1500 mg/kg) (the extract method can refer to Example 3), HEA (5 mg/kg, 10 mg/kg, 15 mg/kg) group. Using mouse PD model induced by 1-methyl-4-phenyl-[…] (MPTP), in Cordyceps cicadae crude extract group and HEA with different concentration group were respectively peritoneal injected for consecutive 14 days, and at Day 11, before 1 hour of drug administration, MPTP 30 mg/kg was peritoneally injected, for consecutive 4 days, after one day after the last administration, a behavior test of pole-climbing ability was conducted, after 4 days the rat wad killed by puling neck and the striatum was removed. The control group was given same amount of normal saline, the model group at Day 11, one hour before the normal saline was given, MPTP 30 mg/kg was peritoneally injected, for four consecutive days.
Heading down, the mouse was placed onto top of a wooden pole with a length of 50 cm, diameter of 10 mm, the time for the mouse clime from top to bottom along the pole was record, the time difference between before and after the modeling was calculate, and analyzed statistically.

[6] = system: mouse PD model induced by MPTP; experiment: MPTP induced mouse PD model: TH positive cells in substantia nigra; type: in vivo; conditions: MPTP 30 mg/kg mice; Cordyceps cicadae extract 1500 mg/kg; HEA 10 mg/kg ip; 14 days
Protocol: as §1, with “The control group was given same amount of normal saline, the model group at Day 11, one hour before the normal saline was given, MPTP 30 mg/kg was peritoneally injected, for four consecutive days.” left out
After completion of behaviour detection, the heart was perfuse with 4% paraformaldehyde and the brain was removed, fixed, desiccated, embedded, and different parts in substantia nigra region were removed for coronal sectioned, tyrosine hydroxylase was used as specific marker for the neuron. The primary antibody is monoclonal mouse TH antibody (1;1000, Sigma), and the secondary antibody is Alexa fluor 488 fluorescence labeling goat anti-mouse (1;1000, Molecular Probes). Taking photo by a fluorescence microscope, and the TH positive cell in the substantia nigra were counted.

[7] = system: rat middle cerebral artery distal obstruction cerebral ischemia model; experiment: dMCAO cerebral ischemia: infarct size by TTC staining; type: in vivo; conditions: HEA 7.5 mg/kg ip, 24 hours after modeling, vs model group

T1 sequence (P30543 whole entry): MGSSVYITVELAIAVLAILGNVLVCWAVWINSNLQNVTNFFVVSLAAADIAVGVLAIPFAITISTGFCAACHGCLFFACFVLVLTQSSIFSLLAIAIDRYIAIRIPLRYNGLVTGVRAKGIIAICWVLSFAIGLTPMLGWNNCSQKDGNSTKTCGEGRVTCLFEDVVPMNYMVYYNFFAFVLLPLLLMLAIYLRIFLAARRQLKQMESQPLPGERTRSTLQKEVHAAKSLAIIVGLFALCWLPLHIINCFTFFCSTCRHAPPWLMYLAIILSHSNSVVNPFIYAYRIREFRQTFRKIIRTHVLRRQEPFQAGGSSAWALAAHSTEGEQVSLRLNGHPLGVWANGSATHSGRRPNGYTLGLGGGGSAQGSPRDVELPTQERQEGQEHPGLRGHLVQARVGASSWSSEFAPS

SMILES	antagonism of the protective effects of HEA in dMCAO ([1]; HEA 7.5 mg/kg + DPCPX 1 mg/kg ip, all dMCAO readouts)	effect of antagonist on the anti-convulsion action of the HEA ([2]; antagonist ip 10 min before HEA 40 mg/kg, DPCPX 2 mg/kg, ZM241385 1 and 5 mg/kg)	Ki [3]	affinity to adenosine A1 receptor relative to adenosine A2A receptor ([4]; A1 versus A2A)	selectivity to A1 receptor (in words) ([4]; A1 versus A2A binding)	Ki ([4]; rat cerebral cortex homogenate, 0.2 nM [3H]DPCPX, 25° C. 30 min, read-out: Ki value of competitive binding with the adenosine A1 receptor)	multilimb coordination ability (pole-climbing) [5]	number of the TH positive cells in substantia nigra [6]	infarct size (TTC staining) [7]	neurologic function score ([1]; dMCAO rat, HEA 5, 7.5, 12 mg/kg ip (7.5 mg/kg) 30 min before operation, vs model group)	survival time after convulsion ([2]; HEA 40 mg/kg ip, pentylenetetrazole 100 mg/kg ip, vs control group)	mortality of mouse convulsion ([2]; HEA 40 mg/kg, pentylenetetrazole 100 mg/kg ip)
CCCn1c(=O)c2[nH]c(C3CCCC3)nc2n(CCC)c1=O [DPCPX, reference compound]	may be antagonized	significantly inhibit the anti-convulsion effect of the HEA; also recorded: significantly reduce the anti-convulsion effect of the HEA										
OCCNc1ncnc2c1ncn2[C@@H]1O[C@H](CO)[C@@H](O)[C@H]1O [HEA, N(6)-(2-hydroxyethyl)-adenosine]			~8.92 µM	100 fold	high selectivity to A1 receptor	0.0895 µM	improve multilimb coordination ability of mouse to different degree	increase number of the TH positive cells	significantly reduce cerebral infarction area; also recorded: significantly reduce the infarct size of the injured brain	significantly improve neurological symptom of dMCAO rat; also recorded: significantly improve neurological function of the injured brain	significantly extend the survival time	very significantly reduce the mortality

Source: patent US10479814B2, “Adenosine receptor activation reagent and the uses of thereof” (Zhejiang Subtropical Crops Research Institute, priority 2014, dated 2019)
